In patent publication US20230092872A1, “Method for promoting wound healing” (Phagelux Canada Inc., priority 2021, published 2023):

Test: Toxicological evaluation of leachable chemicals of BACTELIDE (margin of safety)
Conditions: worst-case exposure: daily exposure, 100% bioavailability; leachables from BACTELIDE spray
Description: ISO 10993-18:2020 and ISO/TS 21726:2019 leachable studies were performed for BACTELIDE. Solutions of BACTELIDE were collected for analysis via the spraying. The extracts were analyzed by gas chromatography-mass spectrometry (GC-MS) for volatile to semi-volatile compounds, by liquid chromatography-mass spectrometry (LC-MS) for semi-volatile to nonvolatile compounds, and by inductively coupled plasma mass spectrometry (ICP-MS) for elemental (metal and other) components. After analysis, results were reported based on the evaluation criteria listed in the results section below. […] 2-(N,N-Diethylamino)ethyldecyl maleate (CAS #184874-09-7) was the most abundant. Regarding LC-MS results, thirty-nine reportable compounds were identified in the test article extracts in positive ion mode. Glycerol dipentadecanoate (CAS #121957-69-5) was the most abundant. Thirty-six reportable compounds were identified in the test article extracts in negative ion mode. 3-[4-[[4-(2-Oxiranylmethoxy)phenyl]methyl]phenoxy]-1,2-propanediol didodecanoate (CAS #not given) was the most abundant. […]
The MOS values for all chemicals (or groups of similar chemicals) and elements identified across the analytical methods ranged from 3 to 1340000. A few chemicals had calculated “near-1” (i.e. ≥1 but <10) MOS values. […] Their margins of safety were calculated using the ICH M7 less than 1 year TTC of 0.33. […]

OCC(O)COc1ccc(Cc2ccc(OCC3CO3)cc2)cc1 (stereo not shown) [3-[4-[[4-(2-Oxiranylmethoxy)phenyl]methyl]phenoxy]-1,2-propanediols]
MOS value (margin of safety): 3
